Experimental data from patent US10576057B2, “Methods for treating muscle wasting and degeneration diseases” (NEWTREE CO., LTD., priority 2015, dated 2020).

Columns and labels:
p-p70S6K = p-p70S6K protein expression by western blot in L6 muscle cells; format: cell-based
Procedure: (§1) L6 myoblasts (ATCC, Manassas, Va., USA) were added to a 6-well plate with Dulbecco's modified Eagle's Media (DMEM; Hyclone) containing 10% fetal bovine serum (FBS; Hyclone, Logan, Utah, USA) at a concentration of 2×10^5 cells/mL. When the cell density reached about 80 to 85%, the medium in the wells was removed. […] Meanwhile, a group treated with 0.01% DMSO instead of the sample was used as a control group. This procedure was carried out for 6 days in two days to differentiate and then dissolved in NP-40 buffer solution (ELPIS-Biotech, Daejeon, Republic of Korea) containing proteinase inhibitor cocktail. The cells dissolved in the buffer solution were transferred to a 1.5-mL tube and centrifuged at 13,000 rpm for 10 minutes to take only a supernatant. The supernatant was quantified using Bradford (Bio-Rad Laboratories Inc., Hercules, Calif., USA). The quantified proteins were boiled for 5 minutes, separated by electrophoresis on 10% SDS-PAGE, and were transferred to the nitrocellulose membrane. A p-mTOR primary antibody (Cellular signaling technology, Beverly, Mass., USA) was diluted with 2.5% bovine serum albumin (BSA) at a ratio of 1:1000 and reacted with proteins transferred to the nitrocellulose membrane for 20 hours at room temperature. […]

MyoD = MyoD mRNA expression by RT-PCR in L6 muscle cells; format: cell-based; conditions: 6 days
Procedure: (§2) Muscle cells, L6 myoblasts (ATCC) were added to a 6-well plate at 2×10^5 cells/ml together with DMEM (Hyclone) containing 10% FBS (Hyclone). When the cell density reached about 80 to 85%, the medium in the wells was removed. […] Meanwhile, a group treated with 0.01% DMSO instead of the sample was used as a control group. This procedure was carried out for 6 days in two days to differentiate and total RNA was isolated using TRIzol reagent (Invitrogen. Carlsbad, Calif., USA). The isolated total RNA was quantified using NanoDrop 1000 (Thermo Fisher Scientific Inc., MA, USA). Quantified 16 μL of RNA was synthesized into cDNA using Reverse Transcriptase Premix (ELPIS-Biotech) and PCR machine (Gene Amp PCR System 2700: Applied Biosystems, MA, USA) at 42° C. for 55 minutes and 70° C. for 15 minutes. 4 μL out of 16 μL cDNA was amplified by PCR using the following specific primers (Bioneer, Daejeon, Republic of Korea) and PCR premix (ELPIS-Biotech). PCR was performed by repeating 30 cycles of 95° C. for 30 seconds, 60° C. for 1 minute, and 72° C. for 1 minute.
(§3) PCR-amplified cDNA was separated by electrophoresis on 1.5% agarose gel and cDNA band was identified using G:BOX EF imaging system (Syngene).
(§4) L6 myoblast (ATCC) were cultured in the same manner as in Example 7. […]

atrogin-1 = atrogin-1 mRNA expression by RT-PCR in TNF-α-treated L6 muscle cells; format: cell-based; conditions: differentiated L6 muscle cells, 50 ng/mL TNF-α
Procedure: (§5) L6 myoblast (ATCC) was added to a 6-well plate at 2×10^5 cells/ml together with DMEM (Hyclone) containing 10% FBS (Hyclone). When the cell density reached about 80% to 85%, the medium in the wells was removed and myotube differentiation was induced by treating the cells with DMEM (Hyclone) containing 2% HS (Hyclone). The medium was replaced with fresh medium every two days and the differentiation was carried out for a total of 6 days. After differentiation, 0.1 μM and 1 μM of morusin prepared in Example 2-1 were respectively dissolved in DMEM (Hyclone) containing 50 ng/mL tumor necrosis factor alph (TNF-α; PeproTech, Rocky Hills, N.J., USA), followed by their treatment on the cells. After 6 hours, total RNA was isolated using TRIzol reagent (Invitrogen). The isolated total RNA was quantified using NanoDrop 1000 (Thermo Fisher Scientific Inc.). The quantified 16 μL of RNA was synthesized into cDNA using Reverse Transcriptase Premix (ELPIS-Biotech) and PCR machine (Gene Amp PCR System 2700: Applied Biosystems) at 42° C. for 55 minutes and at 70° C. for 15 minutes. The PCR was performed by repeating 30 cycles at 95° C. for 30 seconds, at 60° C. for 1 minute and at 72° C. for 1 minute with 4 μl of 16 μl cDNA, the following specific primers (Bioneer), and PCR premix (ELPIS-Biotech): […]

myogenin = myogenin mRNA expression by RT-PCR in L6 muscle cells; format: cell-based; conditions: 6 days
Procedure: as §2, §3, §4

p-4EBP1 = p-4EBP1 protein expression by western blot in L6 muscle cells; format: cell-based
Procedure: as §1

MuRF-1 = MuRF-1 mRNA expression by RT-PCR in TNF-α-treated L6 muscle cells; format: cell-based; conditions: differentiated L6 muscle cells, 50 ng/mL TNF-α
Procedure: as §5

Wistar rats = assay: Muscle mass in TNF-α-induced muscular atrophy animal model; format: in vivo; conditions: for increase in weight of muscle: 300 mg/kg body weight, 8 weeks, vs control group, p<0.01; for Average calf muscle weight: TNF-α-induced atrophy, 300 mg/kg body weight once a day for 8 weeks, right calf
Procedure: Five-week-old Wistar rats were adapted for 1 week and 100 ng/g of TNF-α was supplied for 2 weeks to induce muscular atrophy. Then, groups were randomly assigned on the basis of body weight and divided into five groups of 8 rats per each group. 500 mg/kg body weight of the ethanol extract of Mori Cortex Radicis prepared in Example 1-2, 500 mg/kg body weight of the hot-water extract of Mori Cortex Radicis prepared in Example 1-5, 300 mg/kg body weight of the morusin prepared in Example 2-1, and 300 mg/kg body weight of the kuwanon G prepared in Example 2-2 were suspended in 0.25% carboxymethylcellulose, respectively, followed by their administration on experimental groups once a day for 8 weeks at regular time. A control group was administered with TNF-α suspended in the same amount of 0.25% carboxymethyl cellulose ingested by the experimental groups.
After 8 weeks of administration, the muscles under the right calf were excised and weighed with microbalance (Mettler PE 160, USA).

p-mTOR = p-mTOR protein expression by western blot in L6 muscle cells; format: cell-based; conditions: 5 μM, differentiation 6 days, vs 0.01% DMSO control
Procedure: L6 myoblasts (ATCC, Manassas, Va., USA) were added to a 6-well plate with Dulbecco's modified Eagle's Media (DMEM; Hyclone) containing 10% fetal bovine serum (FBS; Hyclone, Logan, Utah, USA) at a concentration of 2×10^5 cells/mL. When the cell density reached about 80 to 85%, the medium in the wells was removed. The ethanol extract of Mori Cortex Radicis (20 μg/mL) prepared in Example 1-2, the hot water extract of Mori Cortex Radicis (20 μg/mL) prepared in Example 1-5, the morusin (5 μM) and the kuwanon G (5 μM) isolated and purified in Example 2 were dissolved in DMEM (Hyclone) containing 2% HS (Hyclone), followed by its treatment to the cells to induce myotube differentiation. Meanwhile, a group treated with 0.01% DMSO instead of the sample was used as a control group. This procedure was carried out for 6 days in two days to differentiate and then dissolved in NP-40 buffer solution (ELPIS-Biotech, Daejeon, Republic of Korea) containing proteinase inhibitor cocktail. The cells dissolved in the buffer solution were transferred to a 1.5-mL tube and centrifuged at 13,000 rpm for 10 minutes to take only a supernatant. The supernatant was quantified using Bradford (Bio-Rad Laboratories Inc., Hercules, Calif., USA). The quantified proteins were boiled for 5 minutes, separated by electrophoresis on 10% SDS-PAGE, and were transferred to the nitrocellulose membrane. […]

SMILES | expression of p-p70S6K protein (p-p70S6K; 0.1 and 1 μM) | expression of MyoD mRNA (MyoD; 0.1 and 1 μM) | mRNA expression of atrogin-1 (atrogin-1; 0.1 μM and 1 μM, 6 hours) | expression of myogenin mRNA (myogenin; 0.1 and 1 μM) | expression of p-4EBP1 protein (p-4EBP1; 0.1 and 1 μM) | mRNA expression of MuRF-1 (MuRF-1; 0.1 μM and 1 μM, 6 hours) | increase in weight of muscle (Wistar rats) | Average calf muscle weight (Wistar rats) | expression of p-mTOR (p-mTOR) | expression of p-p70S6K protein (p-p70S6K; 1 μM and 5 μM) | expression of MyoD mRNA (MyoD; 1 μM and 5 μM) | mRNA expression of atrogin-1 (atrogin-1; concentration not given) | expression of myogenin mRNA (myogenin; 1 μM and 5 μM) | expression of p-4EBP1 protein (p-4EBP1; 1 μM and 5 μM) | mRNA expression of MuRF-1 (MuRF-1; concentration not given)
CC(C)=CCc1c(-c2ccc(O)cc2O)oc2c3c(cc(O)c2c1=O)OC(C)(C)C=C3 [Morusin, 2-(2,4-Dihydroxyphenyl)-5-hydroxy-8,8-dimethyl-3-(3-methyl-2-buten-1-yl)-4H,8H-benzo[1,2-b:3,4-b′]dipyran-4-one] | increased | increased | decreased | increased | increased | decreased | 23.97% | 543 ± 32.9 mg | increased | – | – | – | – | – | –
CC(C)=CCc1c(-c2ccc(O)cc2O)oc2c([C@H]3C=C(C)C[C@@H](c4ccc(O)cc4O)[C@@H]3C(=O)c3ccc(O)cc3O)c(O)cc(O)c2c1=O [Kuwanon G, 8-[(1S,5R,6S)-6-(2,4-Dihydroxybenzoyl)-5-(2,4-dihydroxyphenyl)-3-methyl-2-cyclohexen-1-yl]-2-(2,4-dihydroxyphenyl)-5,7-dihydroxy-3-(3-methyl-2-buten-1-yl)-4H-chromen-4-one] | – | – | – | – | – | – | 22.60% | 537 ± 15.2 mg | increased | increased | increased | decreased | increased | increased | decreased
